Where two headings read alike, the source gives them in different places.
Columns and labels:
[1] = system: HIV-1 IIIb
Protocol: Each compound series was prepared several times independently in quadruplicate to capture the variations in Hill slope associated with preparation of compound serial dilutions. The assay was performed in a 384-well format. MT-4 cells were infected in bulk at the same MOI as that described above, and the plates were developed with CellTiter-Glo reagent 5 days postinfection.

[2] = Cytotoxicity assay in MT-2 cells; format: cell-based; settings: human, uninfected MT-2 cells
Protocol: For the antiviral assay utilizing MT-2 and MT-4 cells, 50 μl of a 2× test concentration of 5-fold serially diluted compound in culture medium with 10% FBS was added to each well of a 96-well plate (9 concentrations) in triplicate. MT-2 and MT-4 cells were infected with HIV-1 IIIb at a multiplicity of infection (MOI) of 0.01 for 3 h. Fifty microliters of infected cell suspension in culture medium with 10% FBS (∼1.5 × 10^4 cells) then was added to each well containing 50 μl of diluted compound. The plates were then incubated at 37°C for 5 days. After 5 days of incubation, 100 μl of CellTiter-Glo reagent (Promega Biosciences, Inc., Madison, WI) was added to each well containing MT-2 or MT-4 cells. Cell lysis was carried out by incubation at room temperature for 10 min and chemiluminescence was read. For compound cytotoxicity assessment, the protocol was identical except that uninfected cells were used and compounds were serially diluted 3-fold.

[3] = molecular target: T1, HIV-1 IN strand transfer activity (Human immunodeficiency virus type 1 group M subtype B, UniProt P04585); test: IN strand transfer assay (HTRF); format: biochemical; settings: purified recombinant HIV-1 IN; mean ± SD, 3 experiments; read-out: IC50 Inhibition of strand transfer
T1 construct: Recombinant IN containing an N-terminal 6His tag was expressed in BL21(DE3) pLysS bacteria; 6His (N); made in house; host or cells: E. coli BL21(DE3) pLysS
Protocol: (§1) The strand transfer activity of IN was measured using an assay based on homogeneous time-resolved fluorescence resonance energy transfer (HTRF) ([34]) and has been previously described in detail ([35]). An HTRF-based 3′-processing assay was performed essentially as described for the IN strand transfer assay using a specially designed nonprocessed donor DNA in the absence of target DNA ([35]).

[4] = molecular target: T2, HIV-1 IN 3′-processing activity (Human immunodeficiency virus type 1 group M subtype B, UniProt P04585); test: IN 3′-processing assay (HTRF); format: biochemical; settings: purified recombinant HIV-1 IN; mean ± SD, 5 experiments
T2 construct: Recombinant IN containing an N-terminal 6His tag was expressed in BL21(DE3) pLysS bacteria; 6His (N); made in house; host or cells: E. coli BL21(DE3) pLysS
Protocol: as §1

[5] = system: HIV-1 clinical isolates; test: Antiviral assay against HIV-1 clinical isolates in fresh human PBMCs (RT endpoint)
[6] = system: Influenza B/LEE/40; test: microbe, parasite or virus in culture; format: cell-based; settings: NHBE
[7] = system: HIV-1 integration in MT-2 cells (HIV-1 IIIb); settings: HIV-1 IIIb-infected MT-2, relative to mock-treated control
Protocol: Quantification of 2-long terminal repeat (LTR) circles, late reverse transcription products, and integration junctions was adapted from a previously described method ([30]). […] Three hours after viral adsorption, the infected cells were washed twice with 20 ml of RPMI 1640 medium containing 10% FBS and antibiotics and seeded in 6-well plates in 2 ml of culture medium at 1 × 10^6 cells per well. […] These plates were incubated at 37°C for either 12 h (for late reverse transcription product quantification) or 24 h (for 2-LTR circle and Alu-LTR product quantification), after which time the cells were harvested for total DNA isolation. DNA was extracted from each well using the QIAamp DNA minikit (Qiagen, Valencia, CA) and collected as a 100-μl eluate. TaqMan real-time PCR-quantified 2-LTR junctions (2-LTR circles), late reverse transcription products, and integration junctions (Alu-LTR) were normalized to the level of host globin gene in each sample. Quantification by PCR was performed on the ViiA 7 real-time PCR system (Life Technologies, Grand Island, NY).

[8] = system: HIV-1 BaL; test: Antiviral assay in primary CD4+ T lymphocytes (p24 ELISA); settings: Human immunodeficiency virus 1, BAL
From the text: (§2) Freshly isolated human peripheral blood mononuclear cells (PBMCs) were obtained from healthy volunteers (supplied by AllCells, Inc., Alameda, CA). Blood donors were negative for HIV-1, hepatitis B, and hepatitis C viral infections. CD4^+ T lymphocytes were isolated by negative selection using a magnetically labeled antibody cocktail ([sequence] Technologies Inc., Vancouver, Canada) and cultured in RPMI cell culture media (Life Technologies, Grand Island, NY) supplemented with 10% FBS. CD4^+ T cells were activated for 48 h at 37°C by addition of 1 μg/ml phytohemagglutinin (PHA; Sigma, St. Louis, MO) and 5 ng/ml interleukin-2 (IL-2; Roche Diagnostics, Indianapolis, IN).
(§3) A 3-fold serial dilution of test compounds in RPMI medium was added to triplicate wells and incubated at 37°C for 5 days. Human monocytes were seeded on 96-well plates at a density of 3 × 10^5 cells per well, differentiated into adherent macrophages, and then infected with HIV-1 BaL virus in 50 μl RPMI for 3 h at 37°C. […] The supernatants derived from the CD4^+ T-cell and macrophage cultures were harvested 6 and 12 days postinfection, respectively, and the amount of HIV present was quantified by p24 enzyme-linked immunosorbent assay (ELISA) (PerkinElmer, Waltham, MA).

[9] = system: HIV-1 BaL; test: Antiviral assay in monocyte-derived macrophages (p24 ELISA); settings: Human immunodeficiency virus 1, BAL, Macrophage
From the text: as §2, §3

[10] = in vitro; settings: human, CC50 in Primary Human Hepatocytes
[11] = system: HIV-1 IIIb; test: HIV breakthrough selection in MT-2 cells; settings: MT-2, HIV-1 IIIb; FTC 4× EC95, EVG 5× EC95, BIC and DTG 2.5× and 5× EC95; up to day 32
[12] = system: NRTI-, NNRTI- and PI-Resistant HIV-1 Mutants; test: Antiviral activity against NRTI-, NNRTI- and PI-resistant HIV-1 mutants; format: cell-based; settings: Human immunodeficiency virus 1; WT, Table S7

In the case of O=C(NCc1c(F)cc(F)cc1F)c1cn2c(c(O)c1=O)C(=O)N1[C@H]3CC[C@H](C3)O[C@@H]1C2 [BIC, Bictegravir], the “PAEC95 (protein binding-adjusted EC95)” value ([1]; EC95 in MT-4 with human serum shift) is reported as 361 nM, the EC95 ([1]; MT-4 cells, calculated using Hill slope) is reported as 8.3 nM and the CC50 at 5 days [2] is reported as 10300 nM. For the same compound, the IC50 [3] was 7.5 ± 0.3 nM, the IC50 [4] was 241 ± 51 nM and the EC50 ([5]; Human immunodeficiency virus 1, BAL, PBMC, HIV-1 subtype B isolate BaL, human PBMCs) was 0.35 ± 0.12 nM. For the same compound, the EC50 ([5]; Human immunodeficiency virus 1, PBMC, HIV-1 subtype A isolate 92RW016, human PBMCs) was 0.71 ± 0.26 nM, the EC50 ([5]; Human immunodeficiency virus 1, PBMC, HIV-1 subtype A isolate 92UG037, human PBMCs) was 1.5 ± 0.6 nM and the EC50 ([5]; Human immunodeficiency virus 1, PBMC, HIV-1 subtype B isolate 89BZ_167, human PBMCs) was 1 ± 0.5 nM. For the same compound, the EC50 ([5]; Human immunodeficiency virus 1, PBMC, HIV-1 subtype B isolate 91US001, human PBMCs) was 0.89 ± 0.17 nM, the EC50 ([5]; Human immunodeficiency virus 1, PBMC, HIV-1 subtype B isolate 91US004, human PBMCs) was 1.2 ± 0.4 nM and the EC50 ([5]; Human immunodeficiency virus 1, PBMC, HIV-1 subtype C isolate 93IN905, human PBMCs) was 0.15 ± 0.01 nM. It also gave an EC50 ([5]; Human immunodeficiency virus 1, PBMC, HIV-1 subtype C isolate 98US_MSC5016, human PBMCs) of 1.2 ± 0.2 nM, an EC50 ([5]; Human immunodeficiency virus 1, PBMC, HIV-1 subtype D isolate 98UG_57128, human PBMCs) of 0.33 ± 0.01 nM and an EC50 ([5]; Human immunodeficiency virus 1, PBMC, HIV-1 subtype E isolate 96TH_M02138, human PBMCs) of 0.51 ± 0.17 nM. It also gave an EC50 ([5]; Human immunodeficiency virus 1, PBMC, HIV-1 subtype E isolate 96TH_NI1046, human PBMCs) of 0.25 ± 0.06 nM, an EC50 ([5]; Human immunodeficiency virus 1, PBMC, HIV-1 subtype F isolate 93BR020, human PBMCs) of 1.2 ± 0.5 nM and an EC50 ([5]; Human immunodeficiency virus 1, PBMC, read-out: mean EC50 against clinical isolates, 14 HIV-1 isolates and one HIV-2 isolate, human PBMCs) of 0.81 nM. The EC50 ([5]; Human immunodeficiency virus 1, PBMC, read-out: range of EC50s against clinical isolates, 14 HIV-1 isolates and one HIV-2 isolate, human PBMCs) was 0.04 to 1.7 nM, the EC50 [6] was 37200 nM and the “reduction of authentic integration products in infected cells” value [7] was 100 fold. The EC50 [8] was 1.5 ± 0.3 nM, the EC50 [9] was 6.6 ± 4.1 nM and the CC50 ([10]; Donor 1) was over 100000 nM. The CC50 ([10]; Donor 2) was over 100000 nM, the “day postinfection of HIV-1 breakthrough” value [11] was “no virus breakthrough was observed” and the EC50 [12] was 1.7 ± 0.5 nM.

Source: PMC5118987 (Antimicrobial Agents and Chemotherapy, 2016)
